Source: patent publication EP0701561B1, “DESOXYAZAPHOSPHOLIPID DERIVATIVES HAVING INHIBITING ACTIVITY ON PHOSPHOLIPASE A2” (LABORATORIOS MENARINI S.A., priority 1993, dated 1994)

Each molecule was assayed on carrageenin plantar oedema (assay: Antiinflammatory activity, inhibition of the carrageenin plantar oedema in the rat). Details: intravenously, dose 2.5 mg/Kg, paw volume 3 hours after carrageenin.
Assay type: in vivo, male Sprague-Dawley rats
Protocol: The antiinflammatory action of the compounds of the present invention is determined by a standard test based on the procedure by Winter C.A. et al. (Proc. Soc. Exp. Biol. Med., 111, 544 (1962)). In this test, male Sprague-Dawley rats of 90-110 g are used, which are randomized in groups of 5 animals. The compound under test is administered intravenously in the tail lateral vein. The compound is suspended in Tween 20 (2-3% final concentration) and physiological serum is added to obtain a solution of the desired concentration of the compound, the administered volume being 2.5 ml/kg. Immediately after the injection of the compound, a subplantar injection of 0.1 ml of 1% carrageenin in physiological serum is performed in the right paw of the rat. In each test, a control group is systematically used, which is administered with the vehicle only. The paw inflammation is evaluated by measuring its volume with a water plethysmograph 1, 3 and 6 hours after inducing the inflammation. The determination of the inhibition percentage of the inflammation is calculated by the following formula: % Inhibition = (1 - A/B) x 100 [formula] wherein A is the average of the swelling volume in the group of treated animals and B is the average of the swelling volume in the control group.
For comparison purposes, the inhibition values of indomethacin and ketoprofen are also included as reference. The inhibition value found for Compound A, a structural analogous of the compounds described in the present patent, is also shown.
For `CCCCCCCCCCS(=O)(=O)NC(CCCCCC)COP(=O)(O)OCCOCc1ccccc1` (stereo not shown) [Compound 26, 2-Decanesulfonylaminooctanol-1-phospho-2-benzyloxyethanol], the “% Inhibition (3 hours)” value was 26%.

Same assay, conditions: intravenously, dose 5 mg/Kg, paw volume 3 hours after carrageenin
With `CCCCCCCCCCS(=O)(=O)NC(CCCCCC)COP(=O)(O)OCCOCc1ccccc1` (stereo not shown) [Compound 26, 2-Decanesulfonylaminooctanol-1-phospho-2-benzyloxyethanol] the “% Inhibition (3 hours)” value was 37%.
For `CCCCCCCCCCS(=O)(=O)N[C@H](CCCCCC)COP(=O)(O)OCCOCc1ccccc1` [Compound 27, (R)-2-Decanesulfonylaminooctanol-1-phospho-2-benzyloxyethanol], the “% Inhibition (3 hours)” value was 36%.
In the case of `CCCCCCCCCCS(=O)(=O)N[C@@H](CCCCCC)COP(=O)(O)OCCOCc1ccccc1` [Compound 28, (S)-2-Decanesulfonylaminooctanol-1-phospho-2-benzyloxyethanol], the “% Inhibition (3 hours)” value is reported as 19%.
`CCCCCCC(COP(=O)(O)OCCOCc1ccccc1)NS(=O)(=O)CCCc1ccccc1` (stereo not shown) [Compound 32, 2-(3-Phenylpropanesulfonylamino)octanol-1-phospho-2-benzyloxyethanol] was tested, and the “% Inhibition (3 hours)” value was 35%.
`CCCCCCCCCCS(=O)(=O)NC(CCCCCC)COP(=O)(O)CCCCc1ccccc1` (stereo not shown) [Compound 38, 2-Decanesulfonaminooctyl (4-phenylbutyl)phosphonate] was tested, and the “% Inhibition (3 hours)” value was 23%.
For `CCCCCCCCCCCC(=O)NC(CCCCCC)COP(=O)(O)CCCC` (stereo not shown) [Compound 39, 2-Dodecanoylaminooctyl butylphosphonate], the “% Inhibition (3 hours)” value was 17%.
In the case of `COc1ccc2c(c1)c(CC(=O)O)c(C)n2C(=O)c1ccc(Cl)cc1` [Indomethacin, indomethacin, reference compound], the “% Inhibition (3 hours)” value is reported as 37%.
For `CC(C(=O)O)c1cccc(C(=O)c2ccccc2)c1` (stereo not shown) [Ketoprofen, ketoprofen, reference compound], the “% Inhibition (3 hours)” value was 37%.
For “(R)-2-Decanesulfonylaminohexanol-1-phospho-2-benzyloxyethanol [Compound 29]”, the “% Inhibition (3 hours)” value was 27%.
“(S)-2-Decanesulfonylaminohexanol-1-phospho-2-benzyloxyethanol [Compound 30]” was tested, and the “% Inhibition (3 hours)” value was 12%.

Same assay, conditions: intravenously, dose 10 mg/Kg, paw volume 3 hours after carrageenin
For `CCCCCCCCCCS(=O)(=O)NC(CCCCCC)COP(=O)(O)OCCOCc1ccccc1` (stereo not shown) [Compound 26, 2-Decanesulfonylaminooctanol-1-phospho-2-benzyloxyethanol], the “% Inhibition (3 hours)” value was 41%.
For `CCCCCCCCCCCC(=O)NC(CCCCCC)COP(=O)(O)OCCOCc1ccccc1` (stereo not shown) [Compound A, 2-dodecanoylaminooctanol-1-phospho-2-benzyloxyethanol, reference compound], the “% Inhibition (3 hours)” value was 14%.
